# Values of other authors, collected in Sander's compilation of Henry's law constants (doi:10.1021/es8005783).
# Assay: Henry solubility constant Hcp at 298.15 K (mol/(m3 Pa))
# Details: reference: Hilal et al. (2008); cited value
row,Henry solubility constant Hcp,Structure (SMILES)
1,0.0012,"CCc1ccccc1CC [1,2-diethylbenzene]"
2,0.0038,"CCc1cccc(CC)c1 [1,3-diethylbenzene]"
3,0.001,"C1=CCC=CC1 [1,4-cyclohexadiene]"
4,11,COCC(C)O (stereo not drawn) [1-methoxy-2-propanol]
5,0.065,CCC(C)N (stereo not drawn) [2-butanamine]
6,0.72,CC(C)CN [2-methyl-1-propanamine]
7,0.016,"C=C(C)C(=O)OCC [2-methyl-2-propenoic acid, ethyl ester]"
8,6.2e-06,CCCC(C)C [2-methylpentane]
9,0.22,CC(C)N [2-propanamine]
10,0.026,"CCCN(CCC)CCC [N,N-dipropyl-1-propanamine]"
11,7.2e-06,FC(F)(F)Cl [chlorotrifluoromethane]
12,6.9,CCCCCCCCC(=O)O [nonanoic acid]
13,0.02,BrC(Br)(Br)Br [tetrabromomethane]

row,Structure (SMILES),Henry solubility constant Hcp
1,"FC(F)(F)C(F)(Cl)Cl [1,1-dichlorotetrafluoroethane]",7.5e-06
2,"ClC=CCCl [1,3-dichloropropene]",0.0058
3,ClC1=C(Cl)[C@]2(Cl)[C@H]3[C@H]([C@@H]4C=C[C@H]3C4)[C@@]1(Cl)C2(Cl)Cl [aldrin],0.02
4,Cc1c(COC(=O)[C@@H]2[C@H](/C=C(\Cl)C(F)(F)F)C2(C)C)cccc1-c1ccccc1 [bifenthrin],9.9
5,ClC(Cl)Br [bromodichloromethane],0.0077
6,FC(F)(Cl)Cl [dichlorodifluoromethane],3.6e-05
7,ClC1=C(Cl)[C@]2(Cl)[C@@H]3[C@@H]4C[C@@H]([C@H]5O[C@@H]45)[C@@H]3[C@@]1(Cl)C2(Cl)Cl [dieldrin],0.17
8,ClC1=C(Cl)C2(Cl)C3C4OC4C(Cl)C3C1(Cl)C2(Cl)Cl (stereo not drawn) [heptachlorepoxide],0.54
9,ClC(Cl)=C(Cl)C(Cl)=C(Cl)Cl [hexachlorobutadiene],0.00097
10,O=[N+]([O-])c1ccccc1 [nitrobenzene],0.42
